Test results reported in US20100041089A1, “IMPROVED METHOD FOR DETECTING CHEMICAL […]” (priority 2006, published 2010).

Tested on: yeast genes (expressed mRNA)
Test: DNA chip measurement of expressed mRNA of yeast genes after culture with a toxic chemical substance
Type: cell-based, Saccharomyces cerevisiae S288C
Protocol: Yeast (Saccharomyces cerevisiae S288C (a SUC2mal mel gap2 CUP1)) were cultured at 25° C. on YPD medium (yeast extract 1%, polypeptone 2%, glucose 2%). One of toxic chemical substances was added to the cell at logarithmic growth phase, and the cell was further cultured for two hours. Cell was cultured without any chemical substance in the same condition, and was used as a control. Concentrations of the chemical substances were defined to inhibit the growth of the yeast but not lead to death.
After the completion of cultivation, the culture was centrifuged to collect the cells. To the cells, sodium acetate buffer (50 mM sodium acetate, 10 mM EDTA, 1% SDS) was added, and the mixture was shaken at 65° C. for five minutes, followed by returning to room temperature, and obtaining the supernatant, which procedure was repeated two times. To the supernatant, ½ amount of a solution of phenol/chloroform (1:1) was added, and the mixture was centrifuged to give a supernatant, an equal amount of chloroform was added, and the mixture was centrifuged to give a supernatant. To the supernatant, an equal amount of isopropanol containing 0.3 M sodium acetate was added, and the mixture was allowed to stand at room temperature for 30 minutes, after which the mixture was centrifuged to give sediment of the whole RNAs. Seventy % ethanol was added to the sediment, and the mixture was again centrifuged to give sediment, which was then dried and dissolved in water. mRNA was isolated from the whole RNAs as followings. In view of the fact that a poly A chain is attached to the 3′ terminus of mRNA, a polynucleotide having a poly T structure which was immobilized on the surface of latex beads was used to trap the mRNA, and then the mRNA was washed and eluted with spine column (Oligotex-dT30<Super>mRNA Purification Kit, Takara). Reverse transcription of the mRNA was conducted with a reverse transcriptase (Super Script II Reverse Transcriptase; catalogue No. 18064-014, GibcoBRL) using fluorescence-labeled nucleotides to give cDNAs that were introduced with Cy3-dUTP or Cy5-dUTP during the reverse transcription.
The labeled cDNAs were dissolved in TE buffer (10 mM Tris-HCl/1 mM EDTA, pH 8.0), and the solution was dropped on the DNA chip containing the whole genes of yeast (DNA Chip Research Inc. Japan) so that the cDNAs were hybridized on the DNA chip at 65° C. for over 12 hours. The fluoresces intensity of the DNA chip was read with a scanner, and the ratio relative to the fluorescence intensity resulting from the absence of chemical substance was estimated as the following, which is shown in Tables 1 to 9.
In the Tables, “Intensity” indicated in the rightmost column is a value of the level of expressed mRNA of each gene in control cells as divided by the average level of the expressions of the whole genes. A gene of which mRNA level is lower in control, and is higher in cases of addition of chemical substance, is especially useful in the detection of toxic substances.
Here, when a ratio of an amount of mRNA expressed in the presence of the chemical substance to an amount of mRNA expressed in the absence of the chemical substance is two or more, then it is considered significant.

CN(C)C(=S)SSC(=S)N(C)C [(10), Tetramethylthiuram disulfide]
The level of expressed mRNA in the presence of chemical substance/The level of expressed mRNA in the absence of chemical substance (yeast gene YNL077W): 5.1 | The level of expressed mRNA in the presence of chemical substance/The level of expressed mRNA in the absence of chemical substance (yeast gene YNL092W, cultured two hours with substance): 1.5 | The level of expressed mRNA in the presence of chemical substance/The level of expressed mRNA in the absence of chemical substance (yeast gene YNL115C, cultured two hours with substance): 1.9 | The level of expressed mRNA in the presence of chemical substance/The level of expressed mRNA in the absence of chemical substance (yeast gene YNL156C, cultured two hours with substance): 1.9 | The level of expressed mRNA in the presence of chemical substance/The level of expressed mRNA in the absence of chemical substance (yeast gene YNL190W, cultured two hours with substance): 1.1 | The level of expressed mRNA in the presence of chemical substance/The level of expressed mRNA in the absence of chemical substance (yeast gene YNL195C, cultured two hours with the chemical substance): 11.7 | The level of expressed mRNA in the presence of chemical substance/The level of expressed mRNA in the absence of chemical substance (yeast gene YNL208W, cultured two hours with substance): 3.1 | The level of expressed mRNA in the presence of chemical substance/The level of expressed mRNA in the absence of chemical substance (yeast gene YNL234W, cultured two hours with substance): 3.3 | The level of expressed mRNA in the presence of chemical substance/The level of expressed mRNA in the absence of chemical substance (yeast gene YNL277W): 10.9 | The level of expressed mRNA in the presence of chemical substance/The level of expressed mRNA in the absence of chemical substance (yeast gene YNL281W, cultured two hours with substance): 1.6 | The level of expressed mRNA in the presence of chemical substance/The level of expressed mRNA in the absence of chemical substance (yeast gene YNL300W, cultured two hours with substance): 0.2 | The level of expressed mRNA in the presence of chemical substance/The level of expressed mRNA in the absence of chemical substance (yeast gene YNL305C, cultured two hours with substance): 2.1 | The level of expressed mRNA in the presence of chemical substance/The level of expressed mRNA in the absence of chemical substance (yeast gene YNL331C): 36.3 | The level of expressed mRNA in the presence of chemical substance/The level of expressed mRNA in the absence of chemical substance (yeast gene YNL331C, cultured for two hours with substance): 36.3 | The level of expressed mRNA in the presence of chemical substance/The level of expressed mRNA in the absence of chemical substance (yeast gene YNR064C, cultured two hours with substance): 2.1 | The level of expressed mRNA in the presence of chemical substance/The level of expressed mRNA in the absence of chemical substance (yeast gene YNR068C, cultured two hours with substance): 14.4 | The level of expressed mRNA in the presence of chemical substance/The level of expressed mRNA in the absence of chemical substance (yeast gene YNR073C): 16.8 | The level of expressed mRNA in the presence of chemical substance/The level of expressed mRNA in the absence of chemical substance (yeast gene YOL002C, cultured two hours with the substance): 0.3 | The level of expressed mRNA in the presence of chemical substance/The level of expressed mRNA in the absence of chemical substance (yeast gene YOL032W, cultured two hours with substance): 3.0 | The level of expressed mRNA in the presence of chemical substance/The level of expressed mRNA in the absence of chemical substance (yeast gene YOL036W, cultured two hours with substance): 2.8 | The level of expressed mRNA in the presence of chemical substance/The level of expressed mRNA in the absence of chemical substance (yeast gene YOL047C, cultured two hours with substance): 2.3 | The level of expressed mRNA in the presence of chemical substance/The level of expressed mRNA in the absence of chemical substance (yeast gene YOL058W): 15.7 | The level of expressed mRNA in the presence of chemical substance/The level of expressed mRNA in the absence of chemical substance (yeast gene YOL071W, cultured two hours with substance): 2.3 | The level of expressed mRNA in the presence of chemical substance/The level of expressed mRNA in the absence of chemical substance (yeast gene YOL082W, cultured two hours with substance): 2.0 | The level of expressed mRNA in the presence of chemical substance/The level of expressed mRNA in the absence of chemical substance (yeast gene YOL083W, cultured two hours with substance): 2.3 | The level of expressed mRNA in the presence of chemical substance/The level of expressed mRNA in the absence of chemical substance (yeast gene YOL101C, cultured two hours with substance): 0.3 | The level of expressed mRNA in the presence of chemical substance/The level of expressed mRNA in the absence of chemical substance (yeast gene YOL117W, cultured two hours with substance): 4.1 | The level of expressed mRNA in the presence of chemical substance/The level of expressed mRNA in the absence of chemical substance (yeast gene YOL131W, cultured two hours with substance): 8.1 | The level of expressed mRNA in the presence of chemical substance/The level of expressed mRNA in the absence of chemical substance (yeast gene YOL150C, cultured two hours with substance): 8.3 | The level of expressed mRNA in the presence of chemical substance/The level of expressed mRNA in the absence of chemical substance (yeast gene YOL162W, cultured two hours with substance): 6.8 | The level of expressed mRNA in the presence of chemical substance/The level of expressed mRNA in the absence of chemical substance (yeast gene YOL163W (transport facilitation protein gene)): 6.2 | The level of expressed mRNA in the presence of chemical substance/The level of expressed mRNA in the absence of chemical substance (yeast gene YOL165C): 23.3 | The level of expressed mRNA in the presence of chemical substance/The level of expressed mRNA in the absence of chemical substance (yeast gene YOL165C, cultured for two hours with substance): 23.3 | The level of expressed mRNA in the presence of chemical substance/The level of expressed mRNA in the absence of chemical substance (yeast gene YOR019W, cultured two hours with substance): 7.1 | The level of expressed mRNA in the presence of chemical substance/The level of expressed mRNA in the absence of chemical substance (yeast gene YOR197W, cultured two hours with substance): 0.7 | The level of expressed mRNA in the presence of chemical substance/The level of expressed mRNA in the absence of chemical substance (yeast gene YOR248W, cultured two hours with substance): 0.4 | The level of expressed mRNA in the presence of chemical substance/The level of expressed mRNA in the absence of chemical substance (yeast gene YOR382W, cultured two hours with substance): 12.8 | The level of expressed mRNA in the presence of chemical substance/The level of expressed mRNA in the absence of chemical substance (yeast gene YOR383C): 4.5 | The level of expressed mRNA in the presence of chemical substance/The level of expressed mRNA in the absence of chemical substance (yeast gene YOR391C, cultured two hours with substance): 18.1 | The level of expressed mRNA in the presence of chemical substance/The level of expressed mRNA in the absence of chemical substance (yeast gene YPL017C, metabolism protein genes): 6.7 | The level of expressed mRNA in the presence of chemical substance/The level of expressed mRNA in the absence of chemical substance (yeast gene YPL052W, cultured two hours with substance): 4.8 | The level of expressed mRNA in the presence of chemical substance/The level of expressed mRNA in the absence of chemical substance (yeast gene YPL087W, cultured two hours with substance): 2.2 | The level of expressed mRNA in the presence of chemical substance/The level of expressed mRNA in the absence of chemical substance (yeast gene YPL171C, cultured for two hours with substance): 50.6 | The level of expressed mRNA in the presence of chemical substance/The level of expressed mRNA in the absence of chemical substance (yeast gene YPL196W, cultured two hours with substance): 2.8 | The level of expressed mRNA in the presence of chemical substance/The level of expressed mRNA in the absence of chemical substance (yeast gene YPL206C, cultured two hours with substance): 1.1 | The level of expressed mRNA in the presence of chemical substance/The level of expressed mRNA in the absence of chemical substance (yeast gene YPL222W, cultured two hours with substance): 3.4 | The level of expressed mRNA in the presence of chemical substance/The level of expressed mRNA in the absence of chemical substance (yeast gene YPL223C (stress protein genes)): 16.5 | The level of expressed mRNA in the presence of chemical substance/The level of expressed mRNA in the absence of chemical substance (yeast gene YPR023C, cultured two hours with substance): 2.8 | The level of expressed mRNA in the presence of chemical substance/The level of expressed mRNA in the absence of chemical substance (yeast gene YPR079W, cultured two hours with substance): 2.8 | The level of expressed mRNA in the presence of chemical substance/The level of expressed mRNA in the absence of chemical substance (yeast gene YPR151C, cultured two hours with substance): 9.5
